This experiment deals with Human RSV-A (“Long” strain). The experiment can be described thus: RSV in vitro cytoprotection assay in HEp-2 cells (ATPlite readout). It counts as cell-based. The conditions noted are these: human respiratory syncytial virus, 96 h; HEp-2 cells, 4-day incubation, ATPlite; read-out: Human RSV-A (“Long” strain) EC50. From the text:
RSV is a single stranded negative sense RNA virus that causes respiratory tract infections which can be dangerous to infants, the elderly, and immunosuppressed individuals. Currently there is no vaccine, and therapeutic options are both costly and of limited effectiveness. These approved treatments are Ribavirin, and Palivizumab/Synagis (a monoclonal antibody). RSV has two genotypes, A and B, which differ primarily in the structure of the virus' surface “G” attachment protein. Our current primary screen focusses on RSV-A and uses an in vitro cytoprotection assay where compounds are added in 2-fold dilutions to cells which are then subjected to fully replicative viral particles. Cell viability is measured several days later along with separate measurements of compound cytotoxicity. This report focuses on the results of our most recent screening of compounds.
HEp-2 cells, (originally derived from tumors grown in irradiated-cortisonised weanling rats that had been injected with epidermoid carcinoma tissue from a person's larynx, but later found to be indistinguishable from HeLa cells by PCR DNA analysis), were used for the culturing of genotype A, “Long” strain RSV. Flasks were inoculated with RSV and viral stocks were collected once cytopathic effect (CPE) was greater than 90%. Viral stocks in 25% sucrose media were snap frozen using liquid nitrogen to increase viral stability. Viral stock titers were quantified by tissue culture infectious dose 50% (TCID50) using 8,000 cells per well and 3-fold viral dilutions across a 96-well plate, cultured for 4 days.
Following extensive parameter testing, the final assay is run as follows: HEp-2 cells are seeded into the inner 60 wells of a 96-well plate at 8,000 cells per well in a volume of 50 μL using Growth Media (DMEM without phenol red, 1% L-Glut, 1% Penn/Strep, 1% nonessential amino acids, 10% FBS). 2-Fold serial dilutions of control and test compounds are added to the wells in duplicate in a total volume of 25 μL. Viral stock is then added to the wells in a volume of 25 μL, bringing the total volume of each well to 100 μL. Each 96-well plate has a control column of 6 wells with cells and virus but no compound (negative control, max CPE), a column with cells but no compound or virus (positive control, minimum CPE), and a column with no cells or virus or compound (background plate/reagent control). The control wells with cells but no virus are given an additional 25 uL of growth media containing an equal quantity of sucrose as those wells receiving the viral stock in order to keep consistent in media and volume conditions. The outer wells of the plate are filled with 125 μL of growth media to act as a thermal and evaporative moat around the test wells. Following a 4-day incubation period, the plates are read using ATPlite (50 uL added per well), which quantifies the amount of ATP (a measure of cell health) present in each well. Assay plates are read using the Envision luminometer. In parallel, cytotoxicity is examined on an additional 96-well plate treated in an identical manner, but substituting the 25 μL of viral stock for 25 μL of growth media. […] EC50 ranges are as follows: A<0.01 μM; B 0.01-0.05 μM; C>0.05 μM.
For `Cc1ccc(C(=O)Nc2ccc(C(=O)N3CCc4cc(C(=O)Nc5c(F)cccc5C(F)(F)F)sc4-c4ncccc43)cc2)c(N2CC3(CCOCC3)C2)n1` [Example 45], the EC50 was < 10 nM.
On to `Cc1ccc(C(=O)Nc2ccc(C(=O)N3CCc4cc(-c5nc6cccc(F)c6[nH]5)sc4-c4ncccc43)cc2)c(N2CC3(CCOCC3)C2)n1` [Example 46], for which the EC50 was < 10 nM.
The value for `Cc1cnc(N2CC3(CCOCC3)C2)c(C(=O)Nc2ccc(C(=O)N3CCc4cc(C(=O)Nc5c(F)cccc5F)sc4-c4ncccc43)cc2F)c1` [Example 47] was 10 to 50 nM.
The same measure for `Cc1cccc(F)c1NC(=O)c1cc2c(s1)-c1cccnc1N(C(=O)c1ccc(NC(=O)c3cccnc3N3CC4(CCOCC4)C3)cc1)CC2` [Example 50]: > 50 nM; for `O=C(Nc1c(F)cccc1F)c1cc2c(s1)-c1cnccc1N(C(=O)c1ccc(NC(=O)c3cccnc3N3CC4(CCOCC4)C3)cc1)CC2` [Example 51]: 10 to 50 nM; for `O=C(Nc1c(F)cc(F)cc1Cl)c1cc2c(s1)-c1cnccc1N(C(=O)c1ccc(NC(=O)c3cccnc3N3CC4(CCOCC4)C3)cc1)CC2` [Example 52]: 10 to 50 nM.
The same measure for `O=C(Nc1ccc(C(=O)N2CCc3cc(-c4nc5ccccc5[nH]4)sc3-c3cnccc32)cc1)c1cccnc1N1CC2(CCOCC2)C1` [Example 53]: > 50 nM; for `O=C(Nc1ccc(C(=O)N2CCc3cc(-c4nc5ccccc5[nH]4)sc3-c3ncc(F)cc32)cc1)c1cccnc1N1CC2(CCOCC2)C1` [Example 54]: 10 to 50 nM; for `O=C(Nc1c(F)cccc1F)c1cc2c(s1)-c1ncc(F)cc1N(C(=O)c1ccc(NC(=O)c3cccnc3N3CC4(CCOCC4)C3)cc1)CC2` [Example 55]: < 10 nM.
With `O=C(Nc1c(F)cc(F)cc1F)c1cc2c(s1)-c1ncc(F)cc1N(C(=O)c1ccc(NC(=O)c3cccnc3N3CC4(CCOCC4)C3)cc1)CC2` [Example 56], the EC50 is < 10 nM.
For `O=C(Nc1ccc(C(=O)N2CCc3cc(-c4nc5cccc(Cl)c5[nH]4)sc3-c3ncc(F)cc32)cc1)c1cccnc1N1CC2(CCOCC2)C1` [Example 57], the EC50 fell in the range of 10 to 50 nM.
With `Cc1cnc(N2CC3(CCOCC3)C2)c(C(=O)Nc2ccc(C(=O)N3CCc4cc(-c5nc6ccccc6[nH]5)sc4-c4ncc(F)cc43)cc2)c1` [Example 58], the EC50 was < 10 nM.
For `O=C(Nc1c(F)cc(F)cc1Cl)c1cc2c(s1)-c1ncc(F)cc1N(C(=O)c1ccc(NC(=O)c3cccnc3N3CC4(CCOCC4)C3)cc1)CC2` [Example 59], the EC50 was < 10 nM.
The value for `O=C(Nc1ccc(C(=O)N2CCc3cc(-c4nc5cccc(C(F)(F)F)c5[nH]4)sc3-c3ncc(F)cc32)cc1)c1cccnc1N1CC2(CCOCC2)C1` [Example 60] was 10 to 50 nM.
The value for `Cc1cccc(F)c1NC(=O)c1cc2c(s1)-c1ncc(F)cc1N(C(=O)c1ccc(NC(=O)c3cccnc3N3CC4(CCOCC4)C3)cc1)CC2` [Example 61] was < 10 nM; that for `O=C(Nc1c(F)cccc1C(F)(F)F)c1cc2c(s1)-c1ncc(F)cc1N(C(=O)c1ccc(NC(=O)c3cccnc3N3CC4(CCOCC4)C3)cc1)CC2` [Example 62] was < 10 nM.
The value for `Cc1cnc(N2CC3(CCOCC3)C2)c(C(=O)Nc2ccc(C(=O)N3CCc4cc(-c5nc6cccc(Cl)c6[nH]5)sc4-c4ncc(F)cc43)cc2)c1` [Example 63] was < 10 nM; that for `Cc1cnc(N2CC3(CCOCC3)C2)c(C(=O)Nc2ccc(C(=O)N3CCc4cc(-c5nc6cccc(F)c6[nH]5)sc4-c4ncc(F)cc43)cc2)c1` [Example 64] was < 10 nM.
Take `Cc1cnc(N2CC3(CCOCC3)C2)c(C(=O)Nc2ccc(C(=O)N3CCc4cc(C(=O)Nc5c(F)cc(F)cc5Cl)sc4-c4ncc(F)cc43)cc2)c1` [Example 65]: the EC50 is < 10 nM.
The same measure for `Cc1cnc(N2CC3(CCOCC3)C2)c(C(=O)Nc2ccc(C(=O)N3CCc4cc(C(=O)Nc5c(Cl)cccc5Cl)sc4-c4ncc(F)cc43)cc2)c1` [Example 66]: < 10 nM; for `Cc1cnc(N2CC3(CCOCC3)C2)c(C(=O)Nc2ccc(C(=O)N3CCc4cc(C(=O)Nc5c(F)cccc5C(F)(F)F)sc4-c4ncc(F)cc43)cc2)c1` [Example 67]: > 50 nM; for `Cc1cnc(N2CC3COCC3C2)c(C(=O)Nc2ccc(C(=O)N3CCc4cc(-c5nc6ccccc6[nH]5)sc4-c4ncc(F)cc43)cc2)c1` (stereo not shown) [Example 68]: 10 to 50 nM.
The same measure for `Cc1cnc(N2CC3COCC3C2)c(C(=O)Nc2ccc(C(=O)N3CCc4cc(C(=O)Nc5c(F)cccc5F)sc4-c4ncc(F)cc43)cc2)c1` (stereo not shown) [Example 69]: 10 to 50 nM.
The same measure for `Cc1cnc(N2CC3(CCOCC3)C2)c(C(=O)Nc2ccc(C(=O)N3CCc4c(sc(C(=O)Nc5c(F)cccc5F)c4F)-c4ncccc43)cc2)c1` [Example 70, N-(2,6-difluorophenyl)-8-fluoro-5-(4-(5-methyl-2-(7-oxa-2-azaspiro[3.5]nonan-2-yl)nicotinamido)benzoyl)-6,7-dihydro-5H-pyrido[3,2-b]thieno[2,3-d]azepine-9-carboxamide]: < 10 nM.
With `Cc1cnc(N2CC3(CCOCC3)C2)c(C(=O)Nc2ccc(C(=O)N3CCc4c(sc(-c5nc6ccccc6[nH]5)c4F)-c4ncccc43)cc2)c1` [Example 71], the EC50 was < 10 nM.
The same measure for `Cc1cnc(N2CC3(CCOCC3)C2)c(C(=O)Nc2ccc(C(=O)N3CCc4c(sc(C(=O)Nc5ncccc5F)c4F)-c4ncccc43)cc2)c1` [Example 72]: < 10 nM.
The value for `Cc1cnc(N2CC3(CCOCC3)C2)c(C(=O)Nc2ccc(C(=O)N3CCc4c(sc(C(=O)Nc5c(C)cccc5F)c4F)-c4ncccc43)cc2)c1` [Example 73] was < 10 nM.
Take `Cc1cnc(N2CC3(CCOCC3)C2)c(C(=O)Nc2ccc(C(=O)N3CCc4c(sc(C(=O)Nc5ccccc5)c4F)-c4ncccc43)cc2)c1` [Example 74]: the EC50 is < 10 nM.
The same measure for `Cc1cnc(N2CC3(CCOCC3)C2)c(C(=O)Nc2ccc(C(=O)N3CCc4c(sc(C(=O)Nc5c(C)cccc5C#N)c4F)-c4ncccc43)cc2)c1` [Example 75]: < 10 nM; for `Cc1cnc(N2CC3(CCOCC3)C2)c(C(=O)Nc2ccc(C(=O)N3CCc4c(sc(C(=O)Nc5c(F)cccc5Cl)c4F)-c4ncccc43)cc2)c1` [Example 76]: < 10 nM.
The same measure for `Cc1cnc(N2CC3(CCOCC3)C2)c(C(=O)Nc2ccc(C(=O)N3CCc4c(sc(C(=O)Nc5c(F)cccc5C(F)(F)F)c4F)-c4ncccc43)cc2)c1` [Example 77]: 10 to 50 nM; for `Cc1cnc(N2CC3(CCOCC3)C2)c(C(=O)Nc2ccc(C(=O)N3CCc4c(sc(-c5nc6cccc(F)c6[nH]5)c4F)-c4ncccc43)cc2)c1` [Example 78]: < 10 nM; for `Cc1cnc(N2CC3(CCOCC3)C2)c(C(=O)Nc2ccc(C(=O)N3CCc4c(sc(-c5nc6ccc(F)cc6[nH]5)c4F)-c4ncccc43)cc2)c1` [Example 79]: < 10 nM.
The value for `Cc1ccc(C(=O)Nc2ccc(C(=O)N3CCc4c(sc(C(=O)Nc5c(F)cccc5F)c4F)-c4ncccc43)cc2)c(N2CC3(CCOCC3)C2)n1` [Example 81] was < 10 nM; that for `Cc1ccc(C(=O)Nc2ccc(C(=O)N3CCc4c(sc(-c5nc6ccccc6[nH]5)c4F)-c4ncccc43)cc2)c(N2CC3(CCOCC3)C2)n1` [Example 82] was < 10 nM; that for `Cc1ccc(C(=O)Nc2ccc(C(=O)N3CCc4c(sc(C(=O)Nc5c(C)cccc5F)c4F)-c4ncccc43)cc2)c(N2CC3(CCOCC3)C2)n1` [Example 83] was < 10 nM.
For `Cc1ccc(C(=O)Nc2ccc(C(=O)N3CCc4c(sc(C(=O)Nc5ncccc5F)c4F)-c4ncccc43)cc2)c(N2CC3(CCOCC3)C2)n1` [Example 84], the EC50 is < 10 nM.
The value for `Cc1ccc(C(=O)Nc2ccc(C(=O)N3CCc4c(sc(-c5nc6cccc(F)c6[nH]5)c4F)-c4ncccc43)cc2)c(N2CC3(CCOCC3)C2)n1` [Example 85] was < 10 nM.
With `Cc1ccc(C(=O)Nc2ccc(C(=O)N3CCc4c(sc(C(=O)Nc5c(F)cccc5Cl)c4F)-c4ncccc43)cc2)c(N2CC3(CCOCC3)C2)n1` [Example 86], the EC50 is < 10 nM.
The value for `Cc1ccc(C(=O)Nc2ccc(C(=O)N3CCc4c(sc(C(=O)Nc5c(F)cccc5C(F)(F)F)c4F)-c4ncccc43)cc2)c(N2CC3(CCOCC3)C2)n1` [Example 87] was < 10 nM.

A word on the EC50: it is the concentration at which the effect is half-maximal.

The values above are taken from patent US10851115B2, “Heterocyclic compounds as RSV inhibitors” (Enanta Pharmaceuticals, Inc., priority 2017, dated 2020).
